{"source": "patent US20200253926A1", "about": "“THERAPEUTIC COMBINATIONS” (SUPERSALUS, INC., priority 2019, published 2020)", "key": {"[1]": {"system": "portal vein rings", "test": "In-vitro rat portal vein ring relaxation (isometric method)", "type": "cell-based, Wistar rats", "design": "Emax: dose or concentration left out as unconfirmed", "description": "The portal vein was recovered from Wistar rats weighing approximately 450 gm, and divided into vein segments. Segments were placed in a bath containing approximately 10 mL of Krebs buffer at pH˜7.4. The vehicle used for treatment was 0.2% DMSO. Portal vein rings were pre-contracted and incubated for 60 min at 32° C. Ring relaxation was measured after 10 minutes of exposure to the test compound(s). Chromakalim served as the positive control for the experiment. Ring relaxation was measured by the isometric method as gram changes. Relaxation of the vein rings in this assay are a function of both KATP channel agonization and NO response. In prior published work, about half of the relaxation response could be attributable to KATP channel agonization and half to a NO-mediated response. Each assay was run in duplicate.\nEight combinations of concentration of zofenopril and nicorandil were tested in the assay. These were 80 and 40 μM nicorandil, 100 and 50 μM zofenopril, 12.5 μM zofenopril+10 μM nicorandil, 12.5 μM zofenopril+20 μM nicorandil, 12.5 μM zofenopril+40 μM nicorandil, and 25 μM zofenopril+40 μM nicorandil."}, "[2]": {"system": "human umbilical artery segments", "conditions": "cited from earlier work"}, "[3]": {"conditions": "following a 5 mg dose; expected value; cited from earlier work"}, "[4]": {"system": "H2S levels", "conditions": "compared to vehicle treated animals; cited from earlier work"}, "[5]": {"system": "NO2 levels", "conditions": "compared with vehicle treated animals; cited from earlier work"}, "[6]": {"system": "arterial rings", "conditions": "100 μM zofenopril; cited from earlier work"}, "[7]": {"system": "aortic rings", "conditions": "cited from earlier work"}, "[8]": {"system": "isolated rat hearts", "conditions": "cited from earlier work"}, "[9]": {"test": "physchem", "type": "physicochemical", "conditions": "for solubility: thermodynamic from solid", "protocol": "The hygroscopicity of zofenopril sodium material A was tested using DVS."}, "[10]": {"test": "Hygroscopicity by dynamic vapor sorption (DVS)", "type": "physicochemical", "description": "Zofenopril calcium was slurried in ACN. Two molar equivalents of HCl were added. The materials were allowed to slurry overnight. […] On DSC this material has an onset at 162° C. This is in contrast to DSC results for zofenopril calcium which has an onset of 250.3° C. […] On the sorption step up to 65% RH, the material gained 1.2% weight. Above this RH, the material gained an additional 36.9% weight. […] Most of the weight was lost on desorption with significant hysteresis.\nNicorandil free base was dissolved in acetone resulting in a clear solution. A molar equivalent of HCl was added stepwise following which there nucleation with rosettes of aciculars and blades that were birefringent. The resulting material was recovered and shown to be nicorandil HCl form A. The XRPD pattern for this sample is shown in FIG. 16. Based on the single crystal structure, nicorandil hydrochloride form A is anhydrous and contains one nicorandil cation and one chloride anion in the asymmetric unit. On the sorption step up to 75% RH, the material gained 0.5% weight. Above that it gained an additional 52% weight. Most of the weight was lost on desoption with significant hysteresis. The material recovered from DVS was shown by XRPD to be form A (FIG. 18). Solubility of nicorandil HCl form A was tested and shown to be >48 mg/mL which was the limit of the test."}}, "note": "Where a name gives a salt, the structure may show the parent alone.", "data": [{"molecule": "O=C(NCCO[N+](=O)[O-])c1cccnc1", "note": "[nicorandil]", "values": [{"measurement": "relaxation response", "setting": "[1]; 40 μM nicorandil", "result": "maximal relaxation response"}, {"measurement": "relaxation, % of maximum", "setting": "[2]; 30 μM nicorandil", "result": "about 60%"}, {"measurement": "relaxation", "setting": "[2]; 100 μM nicorandil", "result": "maximal relaxation"}, {"measurement": "Cmax", "setting": "[3]", "result": "15 to 16", "unit": "µM"}]}, {"molecule": "CCOC(=O)[C@H](CCc1ccccc1)N[C@@H](C)C(=O)N1[C@H](C(=O)O)C[C@@H]2CCC[C@@H]21", "note": "[Ramipril, ramipril]", "values": [{"measurement": "plasma and myocardial tissue H2S levels", "setting": "[4]", "result": "did not elevate"}, {"measurement": "plasma and myocardial tissue NO2 levels", "setting": "[5]", "result": "virtually no effect"}]}, {"molecule": "C[C@H](CSC(=O)c1ccccc1)C(=O)N1C[C@@H](Sc2ccccc2)C[C@H]1C(=O)O", "note": "[zofenopril]", "values": [{"measurement": "relaxation, % of the positive control", "setting": "[1]; 50 μM zofenopril", "result": 60, "unit": "%"}, {"measurement": "relaxation, % of the positive control", "setting": "[1]; 100 μM zofenopril, positive control chromakalim, 10 min exposure", "result": "about 85%"}, {"measurement": "Emax", "setting": "[1]; Rattus norvegicus, read-out: relaxation, % of the maximum response for zofenopril", "result": "~70", "unit": "%"}, {"measurement": "relaxation response", "setting": "[6]", "result": "maximal relaxation response"}, {"measurement": "maximal response, relaxation of aortic rings", "setting": "[7]", "result": 89, "unit": "%"}, {"measurement": "pre-ischemic coronary flow or contractile function", "setting": "[8]", "result": "little effect"}, {"measurement": "reperfusion end diastolic pressure (EDP) and lactate dehydrogenase (LDH) release", "setting": "[8]; reversed by glyburide and 5-HD", "result": "significantly reduced"}, {"measurement": "reperfusion function", "setting": "[8]; reversed by glyburide and 5-HD", "result": "significantly improved"}, {"measurement": "plasma and myocardial tissue H2S levels", "setting": "[4]", "result": "directly elevating plasma and myocardial tissue H2S levels"}, {"measurement": "plasma and myocardial tissue NO2 levels", "setting": "[5]", "result": "significantly increased"}]}, {"molecule": "O=C(NCCO[N+](=O)[O-])c1cccnc1", "note": "[nicorandil HCl form A, nicorandil hydrochloride]", "values": [{"measurement": "solubility", "setting": "[9]", "result": "> 48", "unit": "mg/mL"}, {"measurement": "DVS additional weight gain above 75% RH", "setting": "[10]; above 75% RH", "result": 52, "unit": "% weight"}, {"measurement": "DVS weight gain on the sorption step up to 75% RH", "setting": "[10]; up to 75% RH", "result": 0.5, "unit": "% weight"}]}, {"molecule": "C[C@H](CSC(=O)c1ccccc1)C(=O)N1C[C@@H](Sc2ccccc2)C[C@H]1C(=O)O", "note": "[zofenopril sodium material A, zofenopril sodium]", "values": [{"measurement": "pH of the solution at the end of the solubility", "setting": "[9]; pH 10", "result": 10}, {"measurement": "solubility", "setting": "[9]; pH 10, water", "result": "> 48", "unit": "mg/mL"}]}, {"molecule": "CC1(C)Oc2ccc(C#N)cc2C(N2CCCC2=O)C1O", "note": "(stereo not drawn) [Chromakalim, chromakalim]", "values": [{"measurement": "relaxation of aortic rings", "setting": "[7]", "result": "near maximal relaxation"}]}, {"molecule": "zofenopril calcium chloride [Zofenopril calcium chloride form A]", "values": [{"measurement": "DVS additional weight gain above 65% RH", "setting": "[10]; above 65% RH, equilibration timed out at all steps", "result": 36.9, "unit": "% weight"}, {"measurement": "DVS weight gain on the sorption step up to 65% RH", "setting": "[10]; up to 65% RH", "result": 1.2, "unit": "% weight"}]}]}
